Experimental findings from patent US7282512B2, “Cycloalkyl ketoamides derivatives useful as cathepsin K inhibitors” (SmithKline Beecham Corporation, priority 2002, dated 2007) are described below.

The target of one data set is T1, human cathepsin K (Homo sapiens, UniProt P43235).
T1 construct: The proform of cathepsin K was converted to mature cathepsin K by brief exposure to pH 4; made in house; host or cells: baculovirus; Trichoplusia ni High Five cells (virus raised in Sf-9)
T1 sequence (P43235 115-329): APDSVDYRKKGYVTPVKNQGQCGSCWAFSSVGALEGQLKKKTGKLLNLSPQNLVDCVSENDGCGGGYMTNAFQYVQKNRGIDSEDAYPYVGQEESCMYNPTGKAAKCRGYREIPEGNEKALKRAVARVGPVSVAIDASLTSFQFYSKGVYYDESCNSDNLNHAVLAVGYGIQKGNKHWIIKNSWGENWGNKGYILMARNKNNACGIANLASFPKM
Description: cathepsin K inhibition assay, fluorogenic substrate Cbz-Phe-Arg-AMC, progress curve method. Conditions: Table 1; human recombinant enzyme, pH 5.5, 30° C., 10 μM substrate; read-out: hcatK Ki. The format is biochemical. As for the experimental part: All assays for cathepsin K were carried out with human and rat recombinant enzyme. Assays for cathepsins S & V were also carried out with human recombinant enzyme. Assays for human cathepsins B, H, and L were carried out with enzyme, purchased from Athens Research and Technology, Inc., prepared from human liver tissue. […] A stock substrate solution of Cbz-Phe-Arg-AMC was prepared at a concentration of 50 mM in dimethyl sulfoxide. This substrate was diluted into the assay for a final substrate concentration of 10 μM in the rat cathepsin K, human cathepsin K, and human cathepsin B assays; a final substrate concentration of 5 μM in the human cathepsin L assay; and a final substrate concentration of 2 μM in the human cathepsin V assay.
All assays contained 10% dimethyl sulfoxide. […] All assays were conducted at 30° C. Product fluorescence (excitation at 360 nm; emission at 440 nm, (except cathepsin H which used excitation at 340 nm; emission at 420 nm)) was monitored with a PerSeptive Biosystems Cytofluor II fluorescence plate reader. Product progress curves were generated over 2.3 h monitoring the formation of 7-amino-4-methylcoumarin product (or β-naphthalamide for cathepsin H).
Two liters of Spodoptera frugiperda (Sf-9) cells (ATCC) were grown in Grace's Supplemented medium (Life Technologies) supplemented with 2 g/L glucose, 10% fetal bovine serum (HyClone) and 0.1% pluronic F-68 (Life Technologies). […] The cells continued to grow for 72 h post-infection, before the virus was harvested by centrifugation at 1400×g for 30 min.
One and one-half liters of Trichoplusia ni (T. ni) High Five (™) cells [JRH Biosciences, Woodland, Calif. […] Media were separated from cells at a rate of 1 L/min using the Centritech 100 (™) continuous-flow centrifuge (DuPont) operating at 200×g.
Protein Purification: Media (human and rat) were filtered through a Whatman 3 filter, and then loaded onto a 25 mL Poros HS II (26 mm×47 mm) cation exchange column equilibrated in 25 mM sodium acetate at pH 5.5 (equilibration buffer). The column was washed until the absorbance reached the baseline value, and then the protein was eluted with a linear gradient from 0-2 M sodium chloride in the equilibration buffer. Column fractions were analyzed by SDS-PAGE, N-terminal sequencing, and mass spectrometry. Fractions containing the proform of cathepsin K were pooled and frozen at −80° C. The proform was concentrated in an Amicon Centriprep 10 and fractionated with a Superdex 75 column (26 mm×600 mm, Pharmacia) equilibrated in 400 mM sodium chloride, 25 mM sodium acetate at pH 5.5.
Cathepsin K Activation: The proform of cathepsin K was converted to mature cathepsin K by brief exposure to pH 4 in the presence of 5 mM L-cysteine. Typically, 5 mM L-cysteine was added to 10 mL of approximately 1 mg/mL procathepsin K. One mL of this solution was diluted ten-fold into 450 mM sodium acetate at pH 4.0 containing 5 mM L-cysteine. This solution was reacted at 23° C. for 2 min before neutralization with 2 mL 1.8 M sodium acetate at pH 6.0. The neutralized sample was added to the remaining 9 mL of procathepsin K. The mixture was incubated at 4° C. for 2-3 days. The activated cathepsin K was chromatographed on a Poros HS II column as described above.
Potential inhibitors were evaluated using the progress curve method. Assays were carried out in the presence of variable concentrations of test compound. Reactions were initiated by addition of buffered solutions of inhibitor and substrate to enzyme. Data analysis was conducted according to one of two procedures depending on the appearance of the progress curves in the presence of inhibitors. […] Ki values were calculated from IC50 values using equation 2 assuming a competitive model.

Turning to `CCCC[C@H](NC(=O)OCC1(Cc2ccccc2)CCC1)C(=O)C(=O)N[C@H](C)c1ccccc1` [Example 5, (1-Benzylcyclobutyl)methyl(1S)-1-(oxo{[(1R)-1-phenylethyl]amino}acetyl)pentylcarbamate], the melting point (as a rule, the temperature of the solid-liquid transition) lay in the range of 96 to 98 °C. Moreover, the Ki (commonly a measure of affinity in units of concentration, obtained from inhibition or displacement) on human cathepsin K was 1 to 10 nM.

In the case of `CCCC[C@H](NC(=O)OCC1(CCc2ccccc2)CCC1)C(=O)C(=O)N[C@H](C)c1ccccc1` [Example 6, [1-(2-Phenylethyl)cyclobutyl]methyl(1S)-1-(oxo{[(1R)-1-phenylethyl]amino}acetyl)pentylcarbamate], the melting point was 86 to 88 °C. Also, the Ki on human cathepsin K fell in the range of 10 to 100 nM.

The compound `CCCC[C@H](NC(=O)OCC1(CCCc2ccccc2)CCC1)C(=O)C(=O)N[C@H](C)c1ccccc1` [Example 7, [1-(3-Phenylpropyl)cyclobutyl]methyl(1S)-1-(oxo{[(1R)-1-phenylethyl]amino}acetyl)pentylcarbamate] came in with a melting point of 91 to 93 °C. In addition, on human cathepsin K, the inhibitory constant (Ki) lay within 10 to 100 nM.

For `CCCC[C@H](NC(=O)OCC1(Cc2ccccc2)CCCC1)C(=O)C(=O)N[C@H](C)c1ccccc1` [Example 8, (1-Benzylcyclopentyl)methyl(1S)-1-(oxo{[(1R)-1-phenylethyl]amino}acetyl)pentylcarbamate], the melting point lay within 108 to 110 °C. The inhibition constant (Ki) on human cathepsin K lay in the range of 10 to 100 nM.

Consider `CCCC[C@H](NC(=O)OCC1(CSc2nccn2-c2ccccc2)CCC1)C(=O)C(=O)N[C@H](C)c1ccccc1` [Example 28, (1-{[(1-phenyl-1H-imidazol-2-yl)sulfanyl]methyl}cyclobutyl)methyl (1S)-1-(oxo{[(1R)-1-phenylethyl]amino}acetyl)pentylcarbamate], for which the Ki at human cathepsin K fell in the range of 10 to 100 nM.

As to `CCCC[C@H](NC(=O)OCC1(COc2ncnc3ccsc23)CCC1)C(=O)C(=O)N[C@H](C)c1ccccc1` [Example 29, {1-[(thieno[3,2-d]pyrimidin-4-yloxy)methyl]cyclobutyl}methyl (1S)-1-(oxo{[(1R)-1-phenylethyl]amino}acetyl)pentylcarbamate], the inhibition constant (Ki) at human cathepsin K fell in the range of 10 to 100 nM.

With `CCCC[C@H](NC(=O)OCC1(COc2ncccn2)CCC1)C(=O)C(=O)N[C@H](C)c1ccccc1` [Example 30, {1-[(2-pyrimidinyloxy)methyl]cyclobutyl}methyl (1S)-1-(oxo {[(1R)-1-phenylethyl]amino}acetyl)pentylcarbamate], at human cathepsin K, the Ki fell in the range of 100 to 1000 nM.

In the case of `CCCC[C@H](NC(=O)OCC1(COc2nc(-c3ccc(C)cc3)cs2)CCC1)C(=O)C(=O)N[C@H](C)c1ccccc1` [Example 31, [1-({[4-(4-methylphenyl)-1,3-thiazol-2-yl]oxy}methyl)cyclobutyl]methyl (1S)-1-(oxo{[(1R)-1-phenylethyl]amino}acetyl)pentylcarbamate], on human cathepsin K, the inhibition constant (Ki) is 100 to 1000 nM.

In the case of `CCCC[C@H](NC(=O)OCC1(CSc2nccc(-c3ccc(Cl)cc3)n2)CCC1)C(=O)C(=O)N[C@H](C)c1ccccc1` [Example 33, [1-({[4-(4-chloro phenyl)-2-pyrimidinyl]sulfanyl}methyl)cyclobutyl]methyl (1S)-1-(oxo{[(1R)-1-phenylethyl]amino}acetyl)pentylcarbamate], on human cathepsin K, the inhibition constant (Ki) lay in the range of 1 to 10 nM.

With `CCCC[C@H](NC(=O)OCC1(CSc2ncc(-c3ccc(Cl)cc3)n2C)CCC1)C(=O)C(=O)N[C@H](C)c1ccccc1` [Example 34, [1-({[5-(4-chlorophenyl)-1-methyl-1H-imidazol-2-yl]sulfanyl}methyl)cyclobutyl]methyl (1S)-1-(oxo{[(1R)-1-phenylethyl]amino}acetyl)pentylcarbamate], at human cathepsin K, the Ki is 100 to 1000 nM.

Turning to `CCCC[C@H](NC(=O)OCC1(CCSc2nccn2C)CCC1)C(=O)C(=O)N[C@H](C)c1ccccc1` [Example 36, (1-{2-[(1-methyl-1H-imidazol-2-yl)sulfanyl]ethyl}cyclobutyl)methyl (1S)-1-(oxo{[(1R)-1-phenylethyl]amino}acetyl)pentylcarbamate], the inhibition constant Ki on human cathepsin K was more than 1000 nM.

As for `CCCC[C@H](NC(=O)OCC1(CCCSc2nccn2C)CCC1)C(=O)C(=O)N[C@H](C)c1ccccc1` [Example 37, (1-{3-[(1-methyl-1H-imidazol-2-yl)sulfanyl]propyl}cyclobutyl)methyl (1S)-1-(oxo{[(1R)-1-phenylethyl]amino}acetyl)pentylcarbamate], the Ki on human cathepsin K is more than 1000 nM.

For the compound `CCCC[C@H](NC(=O)OCC1(CCCOc2ccnc(Cl)n2)CCC1)C(=O)C(=O)N[C@H](C)c1ccccc1` [Example 38, (1-{3-[(2-chloro-4-pyrimidinyl)oxy]propyl}cyclobutyl)methyl (1S)-1-(oxo{[(1R)-1-phenylethyl]amino}acetyl)pentylcarbamate], the Ki on human cathepsin K is more than 1000 nM.
